Experimental findings from ChEMBL document CHEMBL1142322, “Synthesis and biological evaluation of novel 8-aminomethylated oroxylin A analogues as alpha-glucosidase inhibitors” (Bioorg Med Chem Lett, 2008) are described below.

The structures appear in SMILES notation. Activity calls are given as the source filed them. The calls are words filed in the database; no cut-off is given here.

The species entered for assay [1] is Rattus norvegicus. Description: (§1) Inhibition of rat intestinal alpha-glucosidase.
Assay [2] deals with Saccharomyces cerevisiae. Description: (§2) Inhibition of yeast alpha-glucosidase.
The nature of assay [3]: as §1.
A short description of assay [4]: as §2. Also noted: species or system Saccharomyces cerevisiae.
For assay [5], the target named is Sucrase-isomaltase, intestinal (Homo sapiens, UniProt P14410). Description: Inhibition of sucrase.
Sucrase-isomaltase, intestinal, sequence (P14410 2-1007 limits assumed): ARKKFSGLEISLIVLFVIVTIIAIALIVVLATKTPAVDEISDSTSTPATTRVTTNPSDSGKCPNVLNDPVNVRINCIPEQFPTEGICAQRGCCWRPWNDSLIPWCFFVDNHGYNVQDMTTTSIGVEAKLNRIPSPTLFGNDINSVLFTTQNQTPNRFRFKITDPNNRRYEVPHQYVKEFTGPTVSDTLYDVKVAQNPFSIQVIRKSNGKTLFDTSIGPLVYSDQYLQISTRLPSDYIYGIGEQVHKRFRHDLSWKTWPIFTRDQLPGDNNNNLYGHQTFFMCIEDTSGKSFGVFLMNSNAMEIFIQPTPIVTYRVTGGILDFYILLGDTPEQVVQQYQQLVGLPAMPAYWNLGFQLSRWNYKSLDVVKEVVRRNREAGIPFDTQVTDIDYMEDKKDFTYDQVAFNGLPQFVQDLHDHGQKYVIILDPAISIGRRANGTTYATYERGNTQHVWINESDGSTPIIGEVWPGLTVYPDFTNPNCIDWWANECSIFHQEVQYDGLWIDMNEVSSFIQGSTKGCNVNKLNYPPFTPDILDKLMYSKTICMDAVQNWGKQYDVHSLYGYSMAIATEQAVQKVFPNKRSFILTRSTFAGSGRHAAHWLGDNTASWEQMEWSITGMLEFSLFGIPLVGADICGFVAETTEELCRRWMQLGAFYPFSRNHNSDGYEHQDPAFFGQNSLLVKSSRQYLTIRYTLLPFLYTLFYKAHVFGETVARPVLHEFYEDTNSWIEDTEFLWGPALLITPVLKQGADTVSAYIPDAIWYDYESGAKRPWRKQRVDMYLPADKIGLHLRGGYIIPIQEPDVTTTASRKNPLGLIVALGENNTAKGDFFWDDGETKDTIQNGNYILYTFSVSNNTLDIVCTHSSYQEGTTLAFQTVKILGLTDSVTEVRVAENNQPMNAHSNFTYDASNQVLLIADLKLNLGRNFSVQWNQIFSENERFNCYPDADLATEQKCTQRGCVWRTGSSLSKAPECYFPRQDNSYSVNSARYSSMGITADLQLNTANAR
Sucrase-isomaltase, intestinal, sequence (P14410 1008-1827 limits assumed): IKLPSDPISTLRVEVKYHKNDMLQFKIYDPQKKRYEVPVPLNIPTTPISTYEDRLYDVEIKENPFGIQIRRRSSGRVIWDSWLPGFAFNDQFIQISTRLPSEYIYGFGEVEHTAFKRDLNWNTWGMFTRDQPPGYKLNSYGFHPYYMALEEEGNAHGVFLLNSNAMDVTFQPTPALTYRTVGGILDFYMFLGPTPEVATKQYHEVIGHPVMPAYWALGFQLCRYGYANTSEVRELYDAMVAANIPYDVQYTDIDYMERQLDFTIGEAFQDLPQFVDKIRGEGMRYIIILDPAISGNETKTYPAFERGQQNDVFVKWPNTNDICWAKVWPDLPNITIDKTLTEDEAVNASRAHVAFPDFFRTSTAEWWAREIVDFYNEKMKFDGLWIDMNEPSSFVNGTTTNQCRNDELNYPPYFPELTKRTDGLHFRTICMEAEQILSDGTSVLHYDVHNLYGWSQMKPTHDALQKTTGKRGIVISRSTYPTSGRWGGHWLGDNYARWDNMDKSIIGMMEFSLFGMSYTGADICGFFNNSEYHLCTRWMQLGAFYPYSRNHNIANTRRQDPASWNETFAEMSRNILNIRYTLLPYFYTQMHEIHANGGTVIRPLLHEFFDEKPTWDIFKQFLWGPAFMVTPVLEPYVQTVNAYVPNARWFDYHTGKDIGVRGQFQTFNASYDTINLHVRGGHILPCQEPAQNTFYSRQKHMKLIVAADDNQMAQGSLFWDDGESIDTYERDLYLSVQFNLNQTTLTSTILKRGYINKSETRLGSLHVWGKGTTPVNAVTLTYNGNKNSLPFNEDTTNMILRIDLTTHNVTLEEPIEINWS

Regarding `COc1c(O)c(CN(c2ccccc2)c2ccccc2)c2oc(-c3ccccc3)cc(=O)c2c1O`, the outcome in assay [1] and in assay [2] was inactive. Take `COc1c(O)c(CN2CCCC2)c2oc(-c3ccccc3)cc(=O)c2c1O`: the outcome in assay [1] and in assay [2] was inactive. Take `CCCCNCc1c(O)c(OC)c(O)c2c(=O)cc(-c3ccccc3)oc12`: the result in assay [1] and in assay [2] was inactive. With `COc1c(O)cc2oc(-c3ccccc3)cc(=O)c2c1O` [OROXYLIN A], the IC50 in assay [3] was determined as 135 µM; in assay [4] it was 124 µM. As to `O=c1cc(-c2ccccc2)oc2cc(O)cc(O)c12` [CHRYSIN], the IC50 came to 376 µM in assay [3] and 371 µM in assay [4]. In assay [3], `C[C@H]1O[C@H](O[C@H]2[C@H](O)[C@@H](O)[C@@H](O[C@H]3[C@H](O)[C@@H](O)C(O)O[C@@H]3CO)O[C@@H]2CO)[C@H](O)[C@@H](O)[C@@H]1N[C@H]1C=C(CO)[C@@H](O)[C@H](O)[C@H]1O` (some centres undefined) [ACARBOSE] registered a half-maximal inhibitory concentration (IC50) of 6.38 µM. For `COc1c(O)c(CN(C)Cc2ccco2)c2oc(-c3ccccc3)cc(=O)c2c1O`, the result in assay [1] and in assay [2] was inactive.

`OC[C@H]1NC[C@H](O)[C@@H](O)[C@@H]1O` [DUVOGLUSTAT] showed an IC50 in assay [4] of 49.3 µM. For the compound `COc1c(O)c(CN2CCN(C)CC2)c2oc(-c3ccccc3)cc(=O)c2c1O`, the IC50 came to 35.4 µM in assay [3] and 98.8 µM in assay [4]. Consider `COc1c(O)c(CN2CCCCC2)c2oc(-c3ccccc3)cc(=O)c2c1O`, for which the concentration for half-maximal inhibition (IC50) in assay [3] worked out at 50.7 µM; in assay [4] it was 167 µM.

As for `COc1c(O)c(CN(C)Cc2ccccc2)c2oc(-c3ccccc3)cc(=O)c2c1O`, the result in assay [1] and in assay [2] was inactive. Consider `COc1c(O)c(CNCc2ccccc2)c2oc(-c3ccccc3)cc(=O)c2c1O`, for which the result in assay [1] and in assay [2] was inactive. For `COc1c(O)c(CN2CCN(C(=O)OC(C)(C)C)CC2)c2oc(-c3ccccc3)cc(=O)c2c1O`, the IC50 worked out at 75 µM in assay [3] and 84.4 µM in assay [4].

As for `O=c1cc(-c2ccccc2)oc2cc(O)c(O)c(O)c12` [BAICALEIN], the IC50 in assay [3] is 215 µM; in assay [4] it was 203 µM; in assay [5] it was 52 µM. On to `COc1c(O)c(CN2CCOCC2)c2oc(-c3ccccc3)cc(=O)c2c1O`, for which the figures for the IC50 in assay [3] and in assay [4] were 76 µM and 150 µM, respectively.

As a reminder, the IC50 is the point on the concentration scale where inhibition reaches its midpoint.
